Literature values in patent publication US20210379028A1, “TREATMENT OF DEPRESSIVE DISORDERS” (Ovid Therapeutics Inc., priority 2017, published 2021).

How the values were obtained:
[1] = three-month efficacy study, treatment of insomnia
[2] = patients with a history of drug abuse who received gaboxadol
[3] = patients with severe major depressive disorder, combined with escitalopram

## Oc1noc2c1CCNC2 [gaboxadol, 4,5,6,7-tetrahydroisoxazolo [5,4-c] pyridine-3-ol]
[1]
  effects in sleep onset and sleep maintenance: failed to show significant effects
[2]
  psychiatric adverse events: steep increase
[3]
  benefit of combining gaboxadol with escitalopram over escitalopram alone: no additional benefit
